In patent publication US20130216600A1, “ANTIMICROBIAL NANOPARTICLE CONJUGATES” (priority 2010, published 2013):
Where “and” joins values, the source holds several entries; their conditions need not be identical. Equal entries are not always repeated.

How the values were obtained:
[1] = system: C. tropicalis; assay: Spectrum of antifungal activity, MIC after 8 hours; type: cell-based; settings: formulation
Description: (§1) In order to determine the spectrum of antifungal activity of the nanoparticles functionalized with amphotericin B, they were tested against four strains of Candida, namely: C parapsilosis, C krusei, C glabrata, and C tropicalis. The MIC values were determined after 8 hours of incubation with AmB, DexOx-AmB conjugate, unconjugated silica nanoparticles, and silica nanoparticles functionalized with DexOx-AmB.

[2] = system: C. krusei; assay: Spectrum of antifungal activity, MIC after 8 hours; type: cell-based; settings: formulation
Description: as §1

[3] = system: C. parapsilosis; assay: Spectrum of antifungal activity, MIC after 8 hours; type: cell-based; settings: formulation
Description: as §1

[4] = system: C. glabrata; assay: Spectrum of antifungal activity, MIC after 8 hours; type: cell-based; settings: formulation
Description: as §1

[5] = system: C. albicans; assay: Spectrum of antifungal activity, MIC after 8 hours; type: cell-based; settings: formulation
[6] = The Merck Index 1989; cited from earlier work
[7] = system: Candida albicans; assay: MIC of AmB and DexOx-AmB conjugates (NCCLS M27A2E); type: cell-based; settings: 48 hours
From the text: The “minimal inhibitory concentration” or “MIC” is defined as the lowest drug concentration that results in complete inhibition of visible growth of a microorganism.

[8] = system: Pseudomonas aeruginosa ATCC 15442; assay: MIC of DexOx-antibiotic conjugates and free drugs; type: cell-based; settings: P. aeruginosa
Description: (§2) To evaluate the antibacterial activity of DexOx-Amp, DexOx-Van and DexOx-Gen, the minimal inhibitory concentration (MIC) was determined for each of the conjugates and compared with each of MIC values obtained for Amp, Van and Gen. The tests were performed against 5×10^5 cells/mL (in 0.2 mL of medium) of Staphylococcus aureus ATCC 6538 (S. aureus), Pseudomonas aeruginosa ATCC 15442 (P. aeruginosa), Klebsiella pneumoniae ATCC 10031 (K. pneumoniae) or Escherichia coli ATCC 25922 (E. coli), with concentrations of the drug between 0 and 120 μg/mL. The microorganisms were incubated at 37° C. for 18 h, and the absorbance at 600 nm was monitored every 30 min.

[9] = system: Klebsiella pneumoniae ATCC 10031; assay: MIC of DexOx-antibiotic conjugates and free drugs; type: cell-based; settings: K. pneumoniae
Description: as §2

For amphotericin B [AmB], the “Minimum Inhibitory Concentration (MIC)” value [1] was 0.08, the “Minimum Inhibitory Concentration (MIC)” value [2] was 0.1 and the “Minimum Inhibitory Concentration (MIC)” value [3] was 0.3. For the same compound, the “Minimum Inhibitory Concentration (MIC)” value [4] was 0.03, the “Minimum Inhibitory Concentration (MIC)” value [5] was 0.3 and the water solubility limit [6] was 100 µg/mL. The “MIC (μg of conjugate/ml)” value ([7]; 30° C., n=6) was 0.9 ± 0.2 μg of conjugate/ml and the MIC ([7]; unconjugated (soluble) AmB) was 0.9 µg/mL and 0.9 ± 0.2 µg/mL.

In the case of gentamicin, the “MIC free drug (μg/mL)” value [8] is reported as “MIC < 2 μg/mL” and the “MIC free drug (μg/mL)” value [9] is reported as “MIC < 2 μg/mL”.

Work on CC1(C)S[C@@H]2[C@H](NC(=O)[C@H](N)c3ccccc3)C(=O)N2[C@H]1C(=O)O [Amp, ampicillin] yielded an MIC ([8]; Pseudomonas aeruginosa, ATCC15442, free drug) of over 120 µg/mL and an MIC ([9]; Klebsiella pneumoniae, ATCC10031, free drug) of 20 to 40 µg/mL.
